Laboratory results as given in patent US20230002327A1, “SMALL-MOLECULE REGULATOR OF TLR8” (TSINGHUA UNIVERSITY, priority 2019, published 2023).

Assays:
[1] = test system: peripheral blood mononuclear cells of patients suffering from rheumatoid arthritis; assay: TNF-α in PBMC of rheumatoid arthritis patients; assay type: cell-based, human; conditions: PBMC derived from rheumatoid arthritis patients (FIG. 9)
Experimental: Approximately 8 mL of blood was collected from untreated rheumatoid arthritis patients.
Peripheral blood mononuclear cells (PBMCs) were isolated from the whole blood derived from 6 rheumatoid arthritis patients using the lymphocyte separation medium, and the cells were seeded in a 96-well round-bottom plate at a density of 1×10^6 cells/mL immediately after the isolation (cultured in RPMI 1640 (0.25 mL/well)).
Afterwards, cells were treated with 0, 10, 20, 40 and 80 μM Compound 24, Compound 10 was used as a negative control, and cells were placed in a cell incubator (37° C., 5% CO2) for incubation.
After 24 hours, the resultant was centrifuged at 4,000 rpm/minute for 10 minutes, and then the supernatant was collected, frozen to −80° C. and used for the determination of TNF-α. Quantification was conducted using a human TNF ELISA Kit.

TLR8 = molecular target: T1, TLR8 (Homo sapiens, UniProt Q9NR97); assay: ssRNA40-induced signaling in HEK-Blue hTLR8 cell line; assay type: cell-based; conditions: at a concentration of 100 μM (FIG. 12)
T1 construct: host or cells: HEK-Blue hTLR8 (HEK293-derived SEAP reporter cells)
T1 sequence (Q9NR97 27-1041): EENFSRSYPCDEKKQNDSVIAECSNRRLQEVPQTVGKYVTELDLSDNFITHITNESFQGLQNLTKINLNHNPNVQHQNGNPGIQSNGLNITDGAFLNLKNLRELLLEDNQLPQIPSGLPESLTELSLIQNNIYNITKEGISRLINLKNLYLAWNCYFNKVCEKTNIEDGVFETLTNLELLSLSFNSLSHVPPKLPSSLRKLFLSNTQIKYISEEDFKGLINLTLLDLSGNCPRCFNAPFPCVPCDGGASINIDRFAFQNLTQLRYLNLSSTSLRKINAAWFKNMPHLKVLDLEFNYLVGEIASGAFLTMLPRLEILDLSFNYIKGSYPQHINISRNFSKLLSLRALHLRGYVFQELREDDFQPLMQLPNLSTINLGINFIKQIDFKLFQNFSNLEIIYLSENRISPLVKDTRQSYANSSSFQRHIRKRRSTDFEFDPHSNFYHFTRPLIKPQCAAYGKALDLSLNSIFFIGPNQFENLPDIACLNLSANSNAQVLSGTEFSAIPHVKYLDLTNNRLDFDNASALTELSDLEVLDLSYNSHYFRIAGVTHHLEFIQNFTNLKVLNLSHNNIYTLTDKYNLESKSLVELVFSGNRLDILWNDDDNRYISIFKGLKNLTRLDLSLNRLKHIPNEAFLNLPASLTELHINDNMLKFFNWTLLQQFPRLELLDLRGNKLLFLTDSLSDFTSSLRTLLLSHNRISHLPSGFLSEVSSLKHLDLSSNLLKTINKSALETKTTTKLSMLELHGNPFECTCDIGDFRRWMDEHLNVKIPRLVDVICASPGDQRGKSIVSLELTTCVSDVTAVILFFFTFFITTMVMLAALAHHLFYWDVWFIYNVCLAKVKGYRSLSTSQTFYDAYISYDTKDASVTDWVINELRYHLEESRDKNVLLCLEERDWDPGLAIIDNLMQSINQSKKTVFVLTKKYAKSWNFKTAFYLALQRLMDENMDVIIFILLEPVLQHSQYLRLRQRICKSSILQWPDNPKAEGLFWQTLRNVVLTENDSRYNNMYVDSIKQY
Experimental: HEK Blue hTLR8 cells or HEK Blue hTLR7 cells were cultured in DMEM medium supplemented with 10% fetal bovine serum, penicillin (100 U/mL) and streptomycin ([…]). Thereafter, cells were seeded in 96-well plate (45,000 cells per well), and were cultured for 24 hours in a humidified incubator (37° C., 5% CO2).
After 24 hours, the supernatant and suspending cells were aspirated and replaced with fresh serum-free DMEM. Cells were treated with 1 μg/mL of R848 (agonist of TLR7/8) or 5 μg/mL of ssRNA40/LyoVec or 5 μg/mL of ORN06/LyoVec (InvivoGen) and compounds with specified concentrations, and were placed in a humidified incubator (37° C., 5% CO2) for co-culture.
After 24 hours, 50 μL of the medium was aspirated from each well and then added to a new 96-well plate, followed by the addition of 50 μL of Quanti-Blue in each well and the incubation at 37° C. in darkness. Changes in color would occur in the […] within 60 minutes, and the absorbance was measured at 620 nm by using the multi-mode plate reader Vrioskan Flash. Inhibition rate (%)=[R848 (OD620)−Compound (OD620)]/[R848 (OD620)−Control (OD620)]×100%. Among these, the control group was only added with the same amount of cells. Finally, the software Prism 6.0 was utilized to plot a graph and calculate IC50 values. […]

[2] = test system: hTLR1/2, TLR2/6, TLR3, TLR4, TLR5, TLR7, TLR9; assay: Specificity test in HEK-Blue TLR cell lines: other TLRs; assay type: cell-based, human; conditions: at a concentration of 100 μM (FIG. 11)
Experimental: The selectivity of compounds for receptors in TLR family was tested in HEK-Blue cells overexpressing various TLRX (x=1 to 9) respectively. The steps of this test method were the same as those mentioned above in “Activity Test of Compounds”, except that the ligands corresponding to different TLRs were used to activate the downstream signaling in the corresponding cells. Among these, ploy (I:C) (20 μg/mL), LPS (40 ng/mL), Pam3CSK4 (100 ng/mL), Pam2CSK4 (100 ng/mL), flagellin (200 ng/mL), R848 (1 μg/mL) and ODN2006 (0.5 μM) were used to selectively activate HEK-Blue hTLR3-, hTLR4-, hTLR1/2-, hTLR2/6-, hTLR5-, hTLR7- and hTLR9-overexpressing cells, respectively.

SMILES	inhibitory effect on inflammatory factor TNF-α [1]	synergistic activating effect on ssRNA40-induced signaling (TLR8)	influence on other TLR signaling pathways [2]
CSc1nnc(CCCO)n1-c1cc(C)c(C)c(C)c1 [Compound 24, 3-(5-(methylthio)-4-(3,4,5-trimethylphenyl)-4H-1,2,4-triazole-3-yl)propan-1-ol]	significant inhibitory effect	–	–
CCOCc1nc(I)c(-c2ccccc2)n1CC(C)(C)O [Compound 53, 1-[2-(ethoxymethyl)-4-iodo-5-phenyl-1H-imidazole-1-yl]-2-methylpropan-2-ol]	–	synergistic activating effect	no influence
